Starred links: 1 amine or outer side, 2 acyl side, 3 side chain; linkers in the order of their positions; H or OH if unused. Non-standard residues stand in square brackets, D forms with d. Residues, ends and D or L forms follow the SMILES beside them. *: point of attachment. Azetidine3carboxylic = O=C(C1CN([*:1])C1)[*:2]; Pyrrolidine3carbonyl(3S) = O=C([C@H]1CCNC1)*; dBta = N[C@H](Cc1csc2ccccc12)C(=O)O; dTle = CC(C)(C)[C@@H](N)C(=O)O; Ac4c(3-oxa) = NC1(C(=O)O)COC1; Tle = CC(C)(C)[C@H](N)C(=O)O; X1 = N[C@H]1CCC[C@H]1C(=O)*; X2 = O=C(C12CNC[C@@H]1C2)*; dAbu = CC[C@@H](N)C(=O)O; Api = NC1(C(=O)O)CCNCC1; dAze = O=C(O)[C@H]1CCN1; Abu = CC[C@H](N)C(=O)O; X3 = NCC1(C(=O)*)CCC1; βAla = NCCC(=O)O
Key:
GHSR-1a = GHSR-1a (Homo sapiens (Human), UniProt Q92847); assay: Agonistic activity for GHSR-1a, FLIPR calcium assay; format: cell-based; settings: agonist activity assay, Flp In-CHO-GHSR Stable Pool cells, FLIPR calcium 6 kit; read-out: The activity (IC50) of polypeptide compounds for GHSR-1a
CYP1A2 = CYP1A2 (Homo sapiens (Human), UniProt P05177); assay: in vitro; format: in vitro ADME; settings: microsomes; for IC50: 10 min
Method: (§1) Human liver microsomes containing cytochrome P450 (0.253 mg/mL protein) were incubated with test compounds (0.05-50 μM), CYPs substrates (10 μM […], 5 μM diclofenac, 30 μM mephenytoin, 5 μM dextromethorphan hydrobromide and 2 μM midazolam) and 1.0 mM NADP at 37° C. for 10 min. Naphthoflavone, sulfaphenazole, N-3-benzylnirvanol, quinidine and ketoconazole were used as reference inhibitors.

CYP 2C9 = CYP 2C9 (Homo sapiens (Human), UniProt P11712); format: in vitro ADME; settings: microsomes, 10 min
Method: as §1

CYP 2C19 = CYP 2C19 (Homo sapiens (Human), UniProt P33261); format: in vitro ADME; settings: microsomes, 10 min
Method: as §1

CYP 3A4 = CYP 3A4 (Homo sapiens (Human), UniProt P08684); format: in vitro ADME; settings: microsomes, 10 min
Method: as §1

CYP 2D6 = CYP 2D6 (Homo sapiens (Human), UniProt P10635); format: in vitro ADME; settings: microsomes, 10 min
Method: as §1

CYP 2D6, sequence (P10635 whole entry): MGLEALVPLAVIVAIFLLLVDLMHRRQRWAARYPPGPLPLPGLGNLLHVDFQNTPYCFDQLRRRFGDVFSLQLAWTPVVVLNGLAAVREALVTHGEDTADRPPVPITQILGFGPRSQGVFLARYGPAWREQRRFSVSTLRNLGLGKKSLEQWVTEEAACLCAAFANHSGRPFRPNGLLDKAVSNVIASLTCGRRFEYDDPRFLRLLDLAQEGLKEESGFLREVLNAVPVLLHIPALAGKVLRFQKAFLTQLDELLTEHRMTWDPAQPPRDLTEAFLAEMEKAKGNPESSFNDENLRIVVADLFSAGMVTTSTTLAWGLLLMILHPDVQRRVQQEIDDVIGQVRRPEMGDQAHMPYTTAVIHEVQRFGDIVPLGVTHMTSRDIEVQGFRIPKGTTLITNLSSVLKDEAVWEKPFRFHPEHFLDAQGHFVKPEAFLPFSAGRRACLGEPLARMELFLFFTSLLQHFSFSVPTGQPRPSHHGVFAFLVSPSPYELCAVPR
GHSR-1a, sequence (Q92847 whole entry): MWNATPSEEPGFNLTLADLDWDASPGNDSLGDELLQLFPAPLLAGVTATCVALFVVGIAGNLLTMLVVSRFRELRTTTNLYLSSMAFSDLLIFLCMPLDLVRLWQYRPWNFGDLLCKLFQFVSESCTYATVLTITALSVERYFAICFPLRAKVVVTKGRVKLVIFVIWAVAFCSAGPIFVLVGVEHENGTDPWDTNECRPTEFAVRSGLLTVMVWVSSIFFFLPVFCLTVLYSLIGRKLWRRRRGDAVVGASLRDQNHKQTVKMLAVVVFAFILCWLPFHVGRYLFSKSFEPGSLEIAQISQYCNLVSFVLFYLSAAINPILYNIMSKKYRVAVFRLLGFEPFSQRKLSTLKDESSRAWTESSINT
CYP 2C9, sequence (P11712 whole entry): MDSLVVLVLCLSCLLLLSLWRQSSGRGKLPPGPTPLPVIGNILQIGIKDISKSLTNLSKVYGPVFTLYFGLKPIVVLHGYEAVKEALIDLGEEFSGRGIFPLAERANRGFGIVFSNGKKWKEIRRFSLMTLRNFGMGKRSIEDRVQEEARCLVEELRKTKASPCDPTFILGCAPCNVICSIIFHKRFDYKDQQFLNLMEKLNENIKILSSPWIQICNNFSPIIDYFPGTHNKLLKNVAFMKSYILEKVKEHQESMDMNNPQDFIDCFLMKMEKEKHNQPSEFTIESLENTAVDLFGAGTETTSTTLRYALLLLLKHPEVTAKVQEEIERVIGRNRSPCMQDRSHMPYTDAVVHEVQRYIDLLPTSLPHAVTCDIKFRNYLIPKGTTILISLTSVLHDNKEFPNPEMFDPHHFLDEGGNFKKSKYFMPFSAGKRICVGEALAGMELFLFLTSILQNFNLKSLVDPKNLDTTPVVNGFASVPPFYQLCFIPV
CYP 2C19, sequence (P33261 whole entry): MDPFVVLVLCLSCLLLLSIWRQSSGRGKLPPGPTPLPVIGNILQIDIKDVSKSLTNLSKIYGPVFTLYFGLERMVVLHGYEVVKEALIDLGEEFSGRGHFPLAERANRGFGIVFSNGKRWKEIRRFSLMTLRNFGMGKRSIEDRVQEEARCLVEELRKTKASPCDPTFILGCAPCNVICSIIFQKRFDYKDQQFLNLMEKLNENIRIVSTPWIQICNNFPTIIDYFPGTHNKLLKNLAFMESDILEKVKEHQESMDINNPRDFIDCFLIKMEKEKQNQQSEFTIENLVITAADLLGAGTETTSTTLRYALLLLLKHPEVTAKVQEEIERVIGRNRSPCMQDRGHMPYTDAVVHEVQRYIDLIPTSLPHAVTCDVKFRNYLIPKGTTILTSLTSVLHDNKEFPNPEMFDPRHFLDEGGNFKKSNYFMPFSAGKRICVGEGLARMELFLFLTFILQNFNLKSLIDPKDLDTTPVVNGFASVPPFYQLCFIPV
CYP 3A4, sequence (P08684 whole entry): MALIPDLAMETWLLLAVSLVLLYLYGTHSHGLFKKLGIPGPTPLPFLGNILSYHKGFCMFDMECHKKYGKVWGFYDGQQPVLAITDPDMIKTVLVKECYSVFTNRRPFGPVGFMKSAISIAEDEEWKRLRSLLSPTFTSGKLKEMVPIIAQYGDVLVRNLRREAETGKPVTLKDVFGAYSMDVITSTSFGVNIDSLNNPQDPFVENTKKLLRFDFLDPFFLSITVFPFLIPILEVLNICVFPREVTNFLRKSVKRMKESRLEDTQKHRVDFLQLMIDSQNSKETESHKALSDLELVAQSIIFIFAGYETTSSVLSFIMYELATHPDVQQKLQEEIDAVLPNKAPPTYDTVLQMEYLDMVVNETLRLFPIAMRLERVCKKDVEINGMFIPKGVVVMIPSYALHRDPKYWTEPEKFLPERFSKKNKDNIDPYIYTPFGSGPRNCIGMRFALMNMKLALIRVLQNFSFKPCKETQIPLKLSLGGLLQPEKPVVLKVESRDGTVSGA
CYP1A2, sequence (P05177 whole entry): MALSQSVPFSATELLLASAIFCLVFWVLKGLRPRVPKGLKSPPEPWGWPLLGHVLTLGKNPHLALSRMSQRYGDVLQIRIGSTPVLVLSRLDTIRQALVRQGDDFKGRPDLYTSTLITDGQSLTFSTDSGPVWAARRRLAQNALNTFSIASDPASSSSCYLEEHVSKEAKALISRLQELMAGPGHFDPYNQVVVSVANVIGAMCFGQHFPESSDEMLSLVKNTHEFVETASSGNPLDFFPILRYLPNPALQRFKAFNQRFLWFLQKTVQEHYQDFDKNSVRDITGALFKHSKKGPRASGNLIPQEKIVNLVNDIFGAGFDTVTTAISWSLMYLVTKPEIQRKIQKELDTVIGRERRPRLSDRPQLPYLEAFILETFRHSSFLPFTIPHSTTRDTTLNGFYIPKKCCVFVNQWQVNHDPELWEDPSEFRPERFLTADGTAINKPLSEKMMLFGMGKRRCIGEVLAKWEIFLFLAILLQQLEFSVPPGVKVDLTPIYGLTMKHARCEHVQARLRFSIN

| Structure (SMILES) | IC50 (GHSR-1a) [µM] | IC50 (CYP1A2) [µM] | IC50 (CYP 2C9) [µM] | IC50 (CYP 2C19) [µM] | IC50 (CYP 3A4) [µM] | IC50 (CYP 2D6) [µM] | IC50 at 10 min (CYP1A2) [µM] |
| --- | --- | --- | --- | --- | --- | --- | --- |
| CC[C@@H](N)C(=O)N[C@H](Cc1csc2ccccc12)C(=O)N[C@H](Cc1c[nH]c2ccccc12)C(=O)N[C@@H](Cc1ccccc1)C(=O)N[C@H](CCCCN)C(N)=O [Compound 32] (H-[dAbu][dBta][dW]F[dK]-NH2) | 0.0024 | > 50 | > 50 | > 50 | 2.55 | 24.8 |  |
| CC[C@H](N)C(=O)N[C@H](Cc1csc2ccccc12)C(=O)N[C@H](Cc1c[nH]c2ccccc12)C(=O)N[C@@H](Cc1ccccc1)C(=O)N[C@H](CCCCN)C(N)=O [Compound 33] (H-[Abu][dBta][dW]F[dK]-NH2) | 0.0031 | > 50 | > 50 | > 50 | > 50 | > 50 |  |
| NCCCC[C@@H](NC(=O)[C@H](Cc1ccccc1)NC(=O)[C@@H](Cc1c[nH]c2ccccc12)NC(=O)[C@@H](Cc1csc2ccccc12)NC(=O)[C@@H]1CCCN1)C(N)=O [Compound 45] (H-P[dBta][dW]F[dK]-NH2) | 0.0051 | > 50 | > 50 | > 50 | > 50 | > 50 |  |
| CC(C)(C)[C@@H](N)C(=O)N[C@H](Cc1csc2ccccc12)C(=O)N[C@H](Cc1c[nH]c2ccccc12)C(=O)N[C@@H](Cc1ccccc1)C(=O)N[C@H](CCCCN)C(N)=O [Compound 47] (H-[dTle][dBta][dW]F[dK]-NH2) | 0.0107 | > 50 | > 50 | > 50 | > 50 | > 50 |  |
| NCCCC[C@@H](NC(=O)[C@H](Cc1ccccc1)NC(=O)[C@@H](Cc1c[nH]c2ccccc12)NC(=O)[C@@H](Cc1csc2ccccc12)NC(=O)[C@@H]1CCC[C@@H]1N)C(N)=O [Compound 51] (X1-[dBta][dW]F[dK]-NH2) | 0.0032 | > 50 | > 50 | > 50 | > 50 | > 50 |  |
| NCCCC[C@@H](NC(=O)[C@H](Cc1ccccc1)NC(=O)[C@@H](Cc1c[nH]c2ccccc12)NC(=O)[C@@H](Cc1csc2ccccc12)NC(=O)C1(CN)CCC1)C(N)=O [Compound 52] (X3-[dBta][dW]F[dK]-NH2) | 0.0038 | > 50 | > 50 | > 50 | > 50 | > 50 |  |
| NCCCC[C@@H](NC(=O)[C@H](Cc1ccccc1)NC(=O)[C@@H](Cc1c[nH]c2ccccc12)NC(=O)[C@@H](Cc1csc2ccccc12)NC(=O)C1CNC1)C(N)=O [Compound 53] (Azetidine3carboxylic-[dBta][dW]F[dK]-NH2) | 0.0112 | > 50 | > 50 | > 50 | > 50 | > 50 |  |
| NCCCC[C@@H](NC(=O)[C@H](Cc1ccccc1)NC(=O)[C@@H](Cc1c[nH]c2ccccc12)NC(=O)[C@@H](Cc1csc2ccccc12)NC(=O)C1(N)COC1)C(N)=O [Compound 54] (H-[Ac4c(3-oxa)][dBta][dW]F[dK]-NH2) | 0.0139 | > 50 | > 50 | > 50 | > 50 | > 50 |  |
| NCC1(C(=O)N[C@H](Cc2csc3ccccc23)C(=O)N[C@H](Cc2c[nH]c3ccccc23)C(=O)N[C@@H](Cc2ccccc2)C(N)=O)CCC1 [Compound 72] | 0.004 |  | > 50 | > 50 | > 50 | > 50 | > 50 |
| NC(=O)[C@H](Cc1ccccc1)NC(=O)[C@@H](Cc1c[nH]c2ccccc12)NC(=O)[C@@H](Cc1csc2ccccc12)NC(=O)[C@H]1CNCCO1 [Compound 77] | 0.0136 |  | > 50 | > 50 | > 50 | > 50 | > 50 |
| NC(=O)[C@H](Cc1ccccc1)NC(=O)[C@@H](Cc1c[nH]c2ccccc12)NC(=O)[C@@H](Cc1csc2ccccc12)NC(=O)[C@@]12CNC[C@@H]1C2 [Compound 80] | 0.0351 |  | > 50 | > 50 | > 50 | > 50 | > 50 |

The remaining compounds from weak to strong by IC50 (GHSR-1a), led by results:

| IC50 (GHSR-1a) [µM] | IC50 (CYP1A2) [µM] | IC50 (CYP 2C9) [µM] | IC50 (CYP 2C19) [µM] | IC50 (CYP 3A4) [µM] | IC50 (CYP 2D6) [µM] | IC50 at 10 min (CYP1A2) [µM] | Structure (SMILES) |
| --- | --- | --- | --- | --- | --- | --- | --- |
| 0.0195 | > 50 | > 50 | > 50 | > 50 | > 50 |  | NC(=O)C1(NC(=O)[C@H](Cc2ccccc2)NC(=O)[C@@H](Cc2c[nH]c3ccccc23)NC(=O)[C@@H](Cc2csc3ccccc23)NC(=O)[C@H]2CCNC2)CCNCC1 [Compound 26] ({Pyrrolidine3carbonyl(3S)}-[dBta][dW]F[Api]-NH2) |
| 0.0181 | > 50 | > 50 | > 50 | > 50 | > 50 |  | NC(=O)C1(NC(=O)[C@H](Cc2ccccc2)NC(=O)[C@@H](Cc2c[nH]c3ccccc23)NC(=O)[C@@H](Cc2csc3ccccc23)NC(=O)[C@H]2CCN2)CCNCC1 [Compound 25] (H-[dAze][dBta][dW]F[Api]-NH2) |
| 0.0134 | > 50 | > 50 | > 50 | > 50 | > 50 |  | NC(=O)C1(NC(=O)[C@H](Cc2ccccc2)NC(=O)[C@@H](Cc2c[nH]c3ccccc23)NC(=O)[C@@H](Cc2csc3ccccc23)NC(=O)C23CNC[C@@H]2C3)CCNCC1 (stereo partly drawn) [Compound 30] (X2-[dBta][dW]F[Api]-NH2) |
| 0.0121 | > 50 | > 50 | > 50 | > 50 | > 50 |  | CC(C)(C)[C@H](N)C(=O)N[C@H](Cc1csc2ccccc12)C(=O)N[C@H](Cc1c[nH]c2ccccc12)C(=O)N[C@@H](Cc1ccccc1)C(=O)N[C@H](CCCCN)C(N)=O [Compound 48] (H-[Tle][dBta][dW]F[dK]-NH2) |
| 0.0055 | > 50 | > 50 | > 50 | > 50 | > 50 |  | NCCCC[C@@H](NC(=O)[C@H](Cc1ccccc1)NC(=O)[C@@H](Cc1c[nH]c2ccccc12)NC(=O)[C@@H](Cc1csc2ccccc12)NC(=O)[C@H]1CCNC1)C(N)=O [Compound 56] ({Pyrrolidine3carbonyl(3S)}-[dBta][dW]F[dK]-NH2) |
| 0.0039 |  | > 50 | > 50 | > 50 | > 50 | > 50 | NC(=O)[C@H](Cc1ccccc1)NC(=O)[C@@H](Cc1c[nH]c2ccccc12)NC(=O)[C@@H](Cc1csc2ccccc12)NC(=O)[C@H]1CCNC1 [Compound 76] |
| 0.0033 |  | > 50 | > 50 | > 50 | > 50 | > 50 | NC(=O)[C@H](Cc1ccccc1)NC(=O)[C@@H](Cc1c[nH]c2ccccc12)NC(=O)[C@@H](Cc1csc2ccccc12)NC(=O)[C@@H]1CCC[C@@H]1N [Compound 71] |
| 0.0028 | > 50 | > 50 | > 50 | > 50 | > 50 |  | NCCCC[C@@H](NC(=O)[C@H](Cc1ccccc1)NC(=O)[C@@H](Cc1c[nH]c2ccccc12)NC(=O)[C@@H](Cc1csc2ccccc12)NC(=O)CCN)C(N)=O [Compound 46] (H-[βAla][dBta][dW]F[dK]-NH2) |
